Assay results from patent publication US11053219B2, “Substituted pyridines as TYK2 inhibitors” (FronThera U.S. Pharmaceuticals LLC, priority 2018, dated 2021).
Where two headings read alike, the source gives them in different places.

Legend:
TYK2 (JH2 domain) = TYK2 (JH2 domain) (Homo sapiens (Human), UniProt P29597); assay: TYK2 JH2 domain binding assay (DiscoverX KINOMEscan); conditions: 11-point 3-fold dilution, duplicate
[1] = tested on: IL12-induced p-STAT4 in human PBMC; assay: IL-12 induced pSTAT4 in human PBMC; assay type: cell-based; conditions: read-out: p-STAT4 IC50
Experimental: Cells were seeded in a round bottom 96-well plate at the concentration of 200,000 cells/well. A 10-point dilution series of test compound (top dose 10 uM, 1:5 dilution) was added to the well using the liquid dispenser (Tecan D300e) and incubated for 1 hour at 37 C. Then human IL-12 recombinant protein (R&D Systems) was added to the well at the final concentration of 10 ng/ml and incubated for 15 minutes at 37 C. Cell lysates were prepared and analyzed by Phospho STAT4 (Tyr693) Kit (Meso Scale Discovery) following manufacturer's protocol.
For calculation of the inhibition rate, the relative pSTAT4 signal of each well=pSTAT4 signal of each well−the average pSTAT4 signal of baseline. The inhibition %=(the average pSTAT4 signal of IL-12 treatment wells−the relative of pSTAT4 signal in each compound containing well)/the average pSTAT4 signal of IL-12 treatment wells*100%

[2] = tested on: INFα induced pSTAT3 in human PBMC; assay: INFα induced pSTAT3 in human PBMC; assay type: cell-based; conditions: read-out: p-STAT3 IC50
Experimental: Fresh Human PBMCs were resuspended in RPMI 1640 medium with 10% FBS. Cells were seeded in a round bottom 96-well plate at the concentration of 200,000 cells/well. A 10-point dilution series of test compound (top dose 10 uM, 1:5 dilution) was added to the well using the liquid dispenser (Tecan D300e) and incubated for 1 hour at 37 C. Then human INFα recombinant protein (R&D Systems) was added to the well at the final concentration of 5000 units/ml and incubated for 15 minutes at 37 C. Cell lysates were prepared and analyzed by Phospho STAT3 (Tyr705) cellular kit (Cisbio) or Phospho STAT5 (Tyr693) Kit (Meso Scale Discovery) following manufacturer's protocol.
For calculation of the inhibition rate, the relative pSTAT signal of each well=pSTAT signal of each well−the average pSTAT signal of baseline. The inhibition %=(the average pSTAT signal of INFα treatment wells−the relative of pSTAT signal in each compound containing well)/the average pSTAT signal of INFα treatment wells*100%
The curve was plotted as the inhibition % (y-axis) vs. compounds concentration (x-axis) and was fitted with log(inhibitor) vs. normalized response—Variable slope by GraphPad Prism7.0.

[3] = tested on: INFα induced pSTAT5 in human PBMC; assay: INFα induced pSTAT5 in human PBMC; assay type: cell-based; conditions: human PBMC, INFα 5000 units/ml; read-out: p-STAT5 IC50

Chain of TYK2 (JH2 domain) (P29597 589-875): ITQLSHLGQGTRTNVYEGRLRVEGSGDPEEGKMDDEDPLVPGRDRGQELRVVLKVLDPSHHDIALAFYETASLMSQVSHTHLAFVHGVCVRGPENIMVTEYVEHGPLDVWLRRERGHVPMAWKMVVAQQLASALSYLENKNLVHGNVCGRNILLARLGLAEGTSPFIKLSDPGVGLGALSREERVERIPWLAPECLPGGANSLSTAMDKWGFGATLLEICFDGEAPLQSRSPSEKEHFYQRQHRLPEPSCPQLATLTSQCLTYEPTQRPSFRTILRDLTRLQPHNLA

SMILES: [2H]C([2H])([2H])NC(=O)c1nnc(N2CCNC2=O)cc1Nc1cccc(-c2ncn(C)n2)c1OC [Example 1, 4-[2-methoxy-3-(1-methyl-1,2,4-triazol-3-yl)anilino]-6-(2-oxoimidazolidin-1-yl)-N-(trideuteriomethyl)pyridazine-3-carboxamide]
- Kd (TYK2 (JH2 domain)): ≤ 0.001 µM
- IC50 ([1]; human PBMC, IL-12 10 ng/ml): < 0.1 µM
- IC50 ([2]; human PBMC, INFα 5000 units/ml): 0.1 to 1 µM

SMILES: [2H]C([2H])([2H])NC(=O)c1nnc(N2CCN(C)C2=O)cc1Nc1cccc(-c2ncn(C)n2)c1OC [Example 2, 4-[2-methoxy-3-(1-methyl-1,2,4-triazol-3-yl)anilino]-6-(3-methyl-2-oxo-imidazolidin-1-yl)-N-(trideuteriomethyl)pyridazine-3-carboxamide]
- Kd (TYK2 (JH2 domain)): ≤ 0.001 µM
- IC50 ([1]; human PBMC, IL-12 10 ng/ml): < 0.1 µM
- IC50 ([2]; human PBMC, INFα 5000 units/ml): 0.1 to 1 µM

SMILES: [2H]C([2H])([2H])NC(=O)c1nnc(N2CCC2=O)cc1Nc1cccc(-c2ncn(C)n2)c1OC [Example 3, 4-[2-methoxy-3-(1-methyl-1,2,4-triazol-3-yl)anilino]-N-methyl-6-(2-oxoazetidin-1-yl) pyridazine-3-carboxamide]
- Kd (TYK2 (JH2 domain)): 0.005 to 0.01 µM
- IC50 ([1]; human PBMC, IL-12 10 ng/ml): 0.1 to 1 µM
- IC50 ([2]; human PBMC, INFα 5000 units/ml): 1 to 10 µM

SMILES: [2H]C([2H])([2H])NC(=O)c1nnc(N2CCC3(CC3)C2=O)cc1Nc1cccc(-c2ncn(C)n2)c1OC [Example 4, 4-[2-methoxy-3-(1-methyl-1,2,4-triazol-3-yl)anilino]-6-(4-oxo-5-azaspiro[2.4]heptan-5-yl)-N-(trideuteriomethyl)pyridazine-3-carboxamide]
- Kd (TYK2 (JH2 domain)): ≤ 0.001 µM
- IC50 ([1]; human PBMC, IL-12 10 ng/ml): < 0.1 µM
- IC50 ([2]; human PBMC, INFα 5000 units/ml): 0.1 to 1 µM

SMILES: [2H]C([2H])([2H])NC(=O)c1nnc(N2CCN(C3CC3)C2=O)cc1Nc1cccc(-c2ncn(C)n2)c1OC [Example 5, 6-(3-cyclopropyl-2-oxo-imidazolidin-1-yl)-4-[2-methoxy-3-(1-methyl-1,2,4-triazol-3-yl)anilino]-N-(trideuteriomethyl)pyridazine-3-carboxamide]
- Kd (TYK2 (JH2 domain)): ≤ 0.001 µM
- IC50 ([1]; human PBMC, IL-12 10 ng/ml): < 0.1 µM
- IC50 ([2]; human PBMC, INFα 5000 units/ml): 0.1 to 1 µM

SMILES: [2H]C([2H])([2H])NC(=O)c1nnc(N2CCC(C)(C)C2=O)cc1Nc1cccc(-c2ncn(C)n2)c1OC [Example 7, 6-(3,3-dimethyl-2-oxo-pyrrolidin-1-yl)-4-[2-methoxy-3-(1-methyl-1,2,4-triazol-3-yl)anilino]-N-(trideuteriomethyl)pyridazine-3-carboxamide]
- IC50 ([1]; human PBMC, IL-12 10 ng/ml): 0.1 to 1 µM
- IC50 ([2]; human PBMC, INFα 5000 units/ml): 0.1 to 1 µM

SMILES: [2H]C([2H])([2H])NC(=O)c1nnc(N2CCN(CC(F)F)C2=O)cc1Nc1cccc(-c2ncn(C)n2)c1OC [Example 8, 6-[3-(2,2-difluoroethyl)-2-oxo-imidazolidin-1-yl]-4-[2-methoxy-3-(1-methyl-1,2,4-triazol-3-yl)anilino]-N-(trideuteriomethyl)pyridazine-3-carboxamide; 2,2,2-trifluoroacetic acid]
- Kd (TYK2 (JH2 domain)): ≤ 0.001 µM
- IC50 ([1]; Homo sapiens, PBMC): < 0.1 µM
- IC50 ([2]; Homo sapiens, PBMC): < 0.1 µM

SMILES: [2H]C([2H])([2H])NC(=O)c1nnc(N2CCN(CCOC)C2=O)cc1Nc1cccc(-c2ncn(C)n2)c1OC [Example 9, 6-[3-(2-methoxyethyl)-2-oxo-imidazolidin-1-yl]-4-[2-methoxy-3-(1-methyl-1,2,4-triazol-3-yl)anilino]-N-(trideuteriomethyl)pyridazine-3-carboxamide]
- Kd (TYK2 (JH2 domain)): ≤ 0.001 µM
- IC50 ([1]; human PBMC, IL-12 10 ng/ml): < 0.1 µM
- IC50 ([2]; human PBMC, INFα 5000 units/ml): 0.1 to 1 µM

SMILES: [2H]C([2H])([2H])NC(=O)c1nnc(N2CCN(C3CCC3)C2=O)cc1Nc1cccc(-c2ncn(C)n2)c1OC [Example 11, 6-(3-cyclobutyl-2-oxo-imidazolidin-1-yl)-4-[2-methoxy-3-(1-methyl-1,2,4-triazol-3-yl)anilino]-N-(trideuteriomethyl)pyridazine-3-carboxamide]
- Kd (TYK2 (JH2 domain)): ≤ 0.001 µM
- IC50 ([1]; human PBMC, IL-12 10 ng/ml): < 0.1 µM
- IC50 [3]: < 0.1 µM

SMILES: [2H]C([2H])([2H])NC(=O)c1nnc(N2CCN(CC)C2=O)cc1Nc1cccc(-c2ncn(C)n2)c1OC [Example 12, 6-(3-ethyl-2-oxo-imidazolidin-1-yl)-4-[2-methoxy-3-(1-methyl-1,2,4-triazol-3-yl)anilino]-N-(trideuteriomethyl)pyridazine-3-carboxamide]
- Kd (TYK2 (JH2 domain)): ≤ 0.001 µM
- IC50 ([1]; Homo sapiens, PBMC): < 0.1 µM
- IC50 ([2]; Homo sapiens, PBMC): < 0.1 µM

SMILES: [2H]C([2H])([2H])NC(=O)c1nnc(N2CCN(C(C([2H])([2H])[2H])C([2H])([2H])[2H])C2=O)cc1Nc1cccc(-c2ncn(C)n2)c1OC [Example 13, 6-(3-isopropyl-2-oxo-imidazolidin-1-yl)-4-[2-methoxy-3-(1-methyl-1,2,4-triazol-3-yl)anilino]-N-(trideuteriomethyl)pyridazine-3-carboxamide]
- IC50 ([1]; Homo sapiens, PBMC): < 0.1 µM
- IC50 ([2]; Homo sapiens, PBMC): < 0.1 µM

SMILES: [2H]C([2H])([2H])NC(=O)c1nnc(N2CCN(C(C)C)C2=O)cc1Nc1cccc(-c2ncn(C)n2)c1OC([2H])([2H])[2H] [Example 14, 6-(3-isopropyl-2-oxo-imidazolidin-1-yl)-4-[3-(1-methyl-1,2,4-triazol-3-yl)-2-(trideuteriomethoxy)anilino]-N-(trideuteriomethyl)pyridazine-3-carboxamide]
- Kd (TYK2 (JH2 domain)): ≤ 0.001 µM
- IC50 ([1]; human PBMC, IL-12 10 ng/ml): < 0.1 µM
- IC50 [3]: < 0.1 µM

SMILES: [2H]C([2H])([2H])NC(=O)c1nnc(N2CCN(C(C)C)C2=O)cc1Nc1cccc(-c2ncn(C([2H])([2H])[2H])n2)c1OC [Example 15, 6-(3-isopropyl-2-oxo-imidazolidin-1-yl)-4-[2-methoxy-3-[1-(trideuteriomethyl)-1,2,4-triazol-3-yl]anilino]-N-(trideuteriomethyl)pyridazine-3-carboxamide]
- Kd (TYK2 (JH2 domain)): ≤ 0.001 µM
- IC50 ([1]; human PBMC, IL-12 10 ng/ml): < 0.1 µM
- IC50 [3]: < 0.1 µM

SMILES: [2H]C([2H])([2H])NC(=O)c1nnc(N2CCN(C3(C)COC3)C2=O)cc1Nc1cccc(-c2ncn(C)n2)c1OC [Example 16, 4-[2-methoxy-3-(1-methyl-1,2,4-triazol-3-yl)anilino]-6-[3-(3-methyloxetan-3-yl)-2-oxo-imidazolidin-1-yl]-N-(trideuteriomethyl)pyridazine-3-carboxamide]
- Kd (TYK2 (JH2 domain)): ≤ 0.001 µM
- IC50 ([1]; human PBMC, IL-12 10 ng/ml): < 0.1 µM
- IC50 [3]: < 0.1 µM

SMILES: [2H]C([2H])([2H])NC(=O)c1c(Nc2cccc(-c3ncn(C)n3)c2OC)cc(NC(=O)C2CC2)nc1F [Example 23]
- Kd (TYK2 (JH2 domain)): ≤ 0.001 µM
- IC50 ([1]; human PBMC, IL-12 10 ng/ml): 0.1 to 1 µM
- IC50 ([2]; human PBMC, INFα 5000 units/ml): 0.1 to 1 µM

SMILES: COc1c(Nc2cc(NC(=O)C3CC3)nnc2C(C)=O)cccc1-c1ncn(C)n1 [Example 24]
- Kd (TYK2 (JH2 domain)): 0.001 to 0.005 µM
- IC50 ([1]; human PBMC, IL-12 10 ng/ml): 0.1 to 1 µM
- IC50 ([2]; human PBMC, INFα 5000 units/ml): 0.1 to 1 µM

SMILES: CCC(=O)c1nnc(NC(=O)C2CC2)cc1Nc1cccc(-c2ncn(C)n2)c1OC [Example 25]
- Kd (TYK2 (JH2 domain)): ≤ 0.001 µM
- IC50 ([1]; human PBMC, IL-12 10 ng/ml): 0.1 to 1 µM
- IC50 ([2]; human PBMC, INFα 5000 units/ml): 0.1 to 1 µM

SMILES: COc1c(Nc2cc(NC(=O)C3CC3)nnc2C(=O)C2CC2)cccc1-c1ncn(C)n1 [Example 26]
- Kd (TYK2 (JH2 domain)): ≤ 0.001 µM
- IC50 ([1]; human PBMC, IL-12 10 ng/ml): < 0.1 µM
- IC50 ([2]; human PBMC, INFα 5000 units/ml): 0.1 to 1 µM

SMILES: COc1c(Nc2cc(Nc3ccccn3)ncc2C(=O)C2CC2)cccc1-c1ncn(C)n1 [Example 37]
- Kd (TYK2 (JH2 domain)): ≤ 0.001 µM
- IC50 ([1]; human PBMC, IL-12 10 ng/ml): < 0.1 µM
- IC50 [3]: < 0.1 µM

SMILES: [2H]C([2H])([2H])NC(=O)c1nnc(NC(=O)N2CC(C)C2)cc1Nc1cccc(-c2ncn(C)n2)c1OC [Example 49]
- Kd (TYK2 (JH2 domain)): ≤ 0.001 µM
- IC50 ([1]; human PBMC, IL-12 10 ng/ml): < 0.1 µM
- IC50 [3]: < 0.1 µM

SMILES: COc1c(Nc2cc(NC(=O)C3CC3)ncc2C(=O)C2CC2)cccc1-c1nnn(C)n1 [Example 51]
- Kd (TYK2 (JH2 domain)): ≤ 0.001 µM
- IC50 ([1]; human PBMC, IL-12 10 ng/ml): < 0.1 µM
- IC50 [3]: < 0.1 µM

SMILES: [2H]C([2H])([2H])NC(=O)c1nnc(N2CCN(C(C)(C)C)C2=O)cc1Nc1cccc(-c2ncn(C)n2)c1OC [Example 89]
- Kd (TYK2 (JH2 domain)): ≤ 0.001 µM
- IC50 ([1]; human PBMC, IL-12 10 ng/ml): < 0.1 µM
- IC50 [3]: < 0.1 µM
